How the values were obtained:
[1] = test system: Staphylococcus aureus 6538; test: MIC in gelose culture medium (relative to reference penicillin); type: cell-based; conditions: S.AUREUS 6538
Description: This is a Gram-positive coccus which is particularly sensitive to penicillins and which has a low resistance mechanism. This strain of Staphylococcus is, therefore, representative of a maximum sensitivity of the species.
(§1) For a certain number of compounds of formula (XV), the minimum inhibitory concentration (MIC) was determined as follows:
(§2) The products to be tested are introduced in increasing concentrations into a gelose culture medium in Petri dishes. A multiple inoculator is used to deposit simultaneously drops (10 microliters) of inoculum (suspension of approximately 10^5 bacteria per ml) onto the surface of the medium. After incubation at 37° C for 24 hours, the growth of the bacteria is observed. By definition, the MIC is expressed by the minimum concentration of tested compound which inhibits the multiplication of the bacteia. In the following results, however, the MIC is given as being equal to 1 for the reference compounds and the activity figures given for the tested compounds of formula (XV) are, therefore, relative values. This presentation of the results is more correct and the most reproducible because, for one and the same bacterial strain, different MIC values can be observed if they are measured at different times. This is bound up with the "seasonal" variations in the strains and their nutrient medium.

[2] = test system: Escherichia coli B; test: as above; type: cell-based; conditions: E.COLI B
Description: This is a well-known collection strain of Escherichia coli which produces very little beta-lactamase (of type I) and is, therefore, very sensitive to penicillins. As regards the classification of the beta-lactamases, use is here made of that proposed by M. H. RICHMOND and R. B. SYKES (see Advances in Microbial Physiology,9,(1973),pp.43 and 45).
as §1, §2

[3] = test system: Escherichia coli B-Ampi R; test: as above; type: cell-based; conditions: E.COLI B AMPI-R
Description: This is a mutant of the preceding strain which we have produced.
as §1, §2

[4] = test system: Staphylococcus aureus 52149; test: as above; type: cell-based; conditions: S.AUREUS 52149
Description: This is a Gram-positive coccus, the intrinsic sensitivity of the receptor of which is equivalent to that of the preceding strain but which produces a beta-lactamase which is typical of the species and which renders it resistant to all the penicillins which are sensitive to hydrolysis.
as §1, §2

[5] = test system: beta-lactamase TEM; test: Rate of hydrolysis by beta-lactamase measured as NaOH consumed per minute; type: biochemical
Description: This method allows the dosage of the penicilloic acid resulting from the hydrolysis of the beta-lactam function by the lytic enzyme. The results of these kinetics, as given in the following Table, clearly show the superiority of compounds E and H as compared with pencillin G.

[6] = target: beta-lactamase TEM (Escherichia coli, UniProt P62593); test: Hydrolysis kinetics: residual activity in the presence of beta-lactamase; type: biochemical, Gram-negative bacteria
beta-lactamase TEM (Escherichia coli, UniProt P62593), sequence (P62593 24-286 limits assumed): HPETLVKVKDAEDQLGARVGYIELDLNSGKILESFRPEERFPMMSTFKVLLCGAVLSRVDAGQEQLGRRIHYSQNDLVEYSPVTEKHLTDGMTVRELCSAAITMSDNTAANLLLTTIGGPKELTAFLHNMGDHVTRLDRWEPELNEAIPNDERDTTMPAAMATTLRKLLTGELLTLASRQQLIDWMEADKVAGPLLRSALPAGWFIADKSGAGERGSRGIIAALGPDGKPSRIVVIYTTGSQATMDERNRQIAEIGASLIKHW

[7] = target: beta-lactamase P 99 (Enterobacter cloacae, UniProt P05364); test: as above; type: biochemical, Gram-negative bacteria
beta-lactamase P 99, sequence (P05364 21-381): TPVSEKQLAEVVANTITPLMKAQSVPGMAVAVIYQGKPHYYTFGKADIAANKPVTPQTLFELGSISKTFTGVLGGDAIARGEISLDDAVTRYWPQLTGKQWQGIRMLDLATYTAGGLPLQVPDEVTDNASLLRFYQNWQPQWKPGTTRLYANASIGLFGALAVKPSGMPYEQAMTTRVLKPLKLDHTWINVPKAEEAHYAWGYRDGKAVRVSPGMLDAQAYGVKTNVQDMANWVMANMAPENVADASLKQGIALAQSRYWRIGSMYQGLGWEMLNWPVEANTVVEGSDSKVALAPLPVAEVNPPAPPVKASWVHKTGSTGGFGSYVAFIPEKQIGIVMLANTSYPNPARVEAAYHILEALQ

[8] = test system: Escherichia coli K 12-44 R; test: MIC in gelose culture medium (relative to reference penicillin); type: cell-based; conditions: E.COLI K 12-44R; reference ampicillin = 1
Description: This strain is a pleiotropic mutant of Escherichia coli K 12-44, which we have produced. It is not a producer of beta-lactamase but, nevertheless, it has a resistance to penicillins, probably as a result of the modification of the permeability of the cell membranes.
as §1, §2

[9] = test system: Escherichia coli K 12-44; test: as above; type: cell-based; conditions: E.COLI K 12-44; reference ampicillin = 1
Description: This is a mutant of Escherichia coli K 12, the typical reference parent strain of the species. This mutant is not a producer of beta-lactamase.
as §1, §2

[10] = test system: Escherichia coli K 12-44 S; test: as above; type: cell-based; conditions: E.COLI K 12-44S; reference ampicillin = 1
Description: It is very sensitive to penicillins due to hyperpermeability.
as §1, §2

[11] = reference 6-amino-penicillanic acid = 1

SMILES: O=C(Cc1ccccc1)N[C@@H]1C(=O)N2[C@@H]1SC1(CCOCC1)[C@@H]2C(=O)O (relative stereo) [Compound A, 6-(2"-phenylacetamido)-2',3',5',6'-tetrahydro-spiro[penam-2,4'-[4H]pyran]-3-carboxylic acid]
- MIC relative to reference compound (=1) ([1]; reference penicillin G = 1): 2
- MIC relative to reference compound (=1) ([2]; reference penicillin G = 1): 4
- MIC relative to reference compound (=1) ([3]; reference penicillin G = 1): 2
- MIC relative to reference compound (=1) ([4]; reference penicillin G = 1): 2

SMILES: Cc1onc(-c2ccccc2)c1C(=O)N[C@@H]1C(=O)N2[C@@H]1SC1(CCOCC1)[C@@H]2C(=O)O (relative stereo) [Compound C, 6-(5"-methyl-3"-phenyl-4"-isoxazolecarboxamido)-2',3',5',6'-tetrahydro-spiro[penam-2,4'-[4H]pyran]-3-carboxylic acid]
- MIC relative to reference compound (=1) ([1]; reference oxacillin = 1): 2
- MIC relative to reference compound (=1) ([4]; reference oxacillin = 1): 1

SMILES: O=C(Cc1ccccc1)N[C@@H]1C(=O)N2[C@@H]1SC1(CCSCC1)[C@@H]2C(=O)O (relative stereo) [Compound E, 6-(2"-phenylacetamido)-2',3',5',6'-tetrahydro-spiro[penam-2,4'-[4H]thiopyran]-3-carboxylic acid]
- MIC relative to reference compound (=1) ([1]; reference penicillin G = 1): 10
- Rate of hydrolysis: microliters 0.005 N NaOH consumed per minute [5]: 0.64 microliters 0.005 N NaOH per m
- MIC relative to reference compound (=1) ([2]; reference penicillin G = 1): 5
- MIC relative to reference compound (=1) ([3]; reference penicillin G = 1): > 2
- MIC relative to reference compound (=1) ([4]; reference penicillin G = 1): 1

SMILES: COc1cccc(OC)c1C(=O)N[C@@H]1C(=O)N2[C@@H]1SC1(CCSCC1)[C@@H]2C(=O)O (relative stereo) [Compound G, 6-(2",6"-dimethoxybenzamido)-2',3',5',6'-tetrahydro-spiro[penam-2,4'-[4H]thiopyran]-3-carboxylic acid]
- MIC relative to reference compound (=1) ([4]; reference methicillin = 1): 0.5

SMILES: N[C@@H](C(=O)NC1C(=O)N2C1SC1(CCOCC1)C2C(=O)O)c1ccccc1 (single isomer, unassigned) [Compound B, 6-(2"-amino-2"-phenylacetamido)-2',3',5',6'-tetrahydro-spiro[penam-2,4'-[4H]pyran]-3-carboxylic acid]
- Remaining activity as percentage of initial ([6]; after incubation for 6 minutes): 87%
- Residual activity in the presence of beta-lactamase ([6]; incubation time 0 minutes): 500 µmol
- Residual activity in the presence of beta-lactamase ([6]; incubation time 2 minutes): 469 µmol
- Residual activity in the presence of beta-lactamase ([6]; incubation time 4 minutes): 453 µmol
- Residual activity in the presence of beta-lactamase ([6]; incubation time 6 minutes): 438 µmol
- Residual activity in the presence of beta-lactamase ([6]; incubation time 12 minutes): 334 µmol
- Residual activity in the presence of beta-lactamase ([6]; incubation time 18 minutes): 225 µmol
- Remaining activity as percentage of initial ([7]; after incubation for 9 minutes): 67%
- Residual activity in the presence of beta-lactamase ([7]; incubation time 0 minutes): 500 µmol
- Residual activity in the presence of beta-lactamase ([7]; incubation time 3 minutes): 458 µmol
- Residual activity in the presence of beta-lactamase ([7]; incubation time 6 minutes): 422 µmol
- Residual activity in the presence of beta-lactamase ([7]; incubation time 9 minutes): 334 µmol
- Residual activity in the presence of beta-lactamase ([7]; incubation time 12 minutes): 312 µmol
- Residual activity in the presence of beta-lactamase ([7]; incubation time 20 minutes): 300 µmol
- MIC relative to reference compound (=1) [8]: 1.5
- MIC relative to reference compound (=1) ([2]; reference ampicillin = 1): 3.5
- MIC relative to reference compound (=1) ([3]; reference ampicillin = 1): 1
- MIC relative to reference compound (=1) [9]: 3.5

SMILES: CC1(C)S[C@@H]2[C@H](NC(=O)[C@H](N)c3ccccc3)C(=O)N2[C@H]1C(=O)O [Ampicillin, ampicillin, reference compound]
- MIC relative to reference compound (=1) ([1]; reference ampicillin = 1): 1
- Residual activity in the presence of beta-lactamase ([6]; incubation time 0 minutes): 500 µmol
- Residual activity in the presence of beta-lactamase ([6]; incubation time 6 minutes): < 50 µmol
- Residual activity in the presence of beta-lactamase ([6]; incubation time 6 minutes, listed as ampicillin): no more detectable
- Residual activity in the presence of beta-lactamase ([6]; incubation time 12 minutes): < 50 µmol
- Residual activity in the presence of beta-lactamase ([6]; incubation time 18 minutes): < 50 µmol
- Residual activity in the presence of beta-lactamase ([7]; incubation time 0 minutes): 500 µmol
- Residual activity in the presence of beta-lactamase ([7]; incubation time 3 minutes): 262 µmol
- Residual activity in the presence of beta-lactamase ([7]; incubation time 6 minutes): 138 µmol
- Residual activity in the presence of beta-lactamase ([7]; incubation time 9 minutes): < 50 µmol
- Residual activity in the presence of beta-lactamase ([7]; incubation time 9 minutes, listed as ampicillin): no more detectable
- Residual activity in the presence of beta-lactamase ([7]; incubation time 12 minutes): < 50 µmol
- Residual activity in the presence of beta-lactamase ([7]; incubation time 20 minutes): < 50 µmol
- MIC relative to reference compound (=1) [8]: 1
- MIC relative to reference compound (=1) ([2]; reference ampicillin = 1): 1
- MIC relative to reference compound (=1) [10]: 1
- MIC relative to reference compound (=1) ([3]; reference ampicillin = 1): 1
- MIC relative to reference compound (=1) [9]: 1

SMILES: NC(C(=O)NC1C(=O)N2C1SC1(CCSCC1)C2C(=O)O)c1ccccc1 (stereo not drawn) [Compound F, 6-(2"-amino-2"-phenylacetamido)-2',3',5',6'-tetrahydro-spiro[penam-2,4'-[4H]thiopyran]-3-carboxylic acid]
- MIC relative to reference compound (=1) ([1]; reference ampicillin = 1): 2
- Resistance to beta-lactamase as compared with ampicillin (in words) [6]: increased resistance
- Resistance to beta-lactamase as compared with ampicillin (in words) [7]: increased resistance
- MIC relative to reference compound (=1) [8]: > 1.5
- MIC relative to reference compound (=1) ([2]; reference ampicillin = 1): 7
- MIC relative to reference compound (=1) [10]: 15
- MIC relative to reference compound (=1) ([3]; reference ampicillin = 1): 3
- MIC relative to reference compound (=1) [9]: 10

SMILES: O=C(Cc1ccccc1)NC1C(=O)N2C1SC1(CC[S+]([O-])CC1)C2C(=O)O (stereo not drawn) [Compound H, 6-(2"-phenylacetamido)-2',3',5',6'-tetrahydro-spiro[penam-2,4'-[4H]thiopyran]-3-carboxylic acid 1'-oxide]
- MIC relative to reference compound (=1) ([1]; reference penicillin G = 1): 1
- Rate of hydrolysis: microliters 0.005 N NaOH consumed per minute [5]: 0.50 microliters 0.005 N NaOH per m
- MIC relative to reference compound (=1) ([2]; reference penicillin G = 1): 1
- MIC relative to reference compound (=1) ([4]; reference penicillin G = 1): 1

SMILES: NC(C(=O)NC1C(=O)N2C1SC1(CC[S+]([O-])CC1)C2C(=O)O)c1ccccc1 (stereo not drawn) [Compound J, 6-(2"-amino-2"-phenylacetamido)-2',3',5',6'-tetrahydro-spiro[penam-2,4'-[4H]thiopyran]-3-carboxylic acid 1'-oxide]
- MIC relative to reference compound (=1) ([1]; reference ampicillin = 1): 2
- Resistance to beta-lactamase as compared with ampicillin (in words) [6]: No change in behavior
- Resistance to beta-lactamase as compared with ampicillin (in words) [7]: No change in behavior
- MIC relative to reference compound (=1) [8]: 2
- MIC relative to reference compound (=1) ([2]; reference ampicillin = 1): 1
- MIC relative to reference compound (=1) [10]: 3
- MIC relative to reference compound (=1) ([3]; reference ampicillin = 1): 2
- MIC relative to reference compound (=1) [9]: 3

SMILES: COc1cccc(OC)c1C(=O)N[C@@H]1C(=O)N2[C@@H]1SC(C)(C)[C@@H]2C(=O)O [Methicillin, methicillin, reference compound]
- MIC relative to reference compound (=1) ([4]; reference methicillin = 1): 1

SMILES: Cc1onc(-c2ccccc2)c1C(=O)N[C@@H]1C(=O)N2[C@@H]1SC(C)(C)[C@@H]2C(=O)O [Oxacillin, oxacillin, reference compound]
- MIC relative to reference compound (=1) ([1]; reference oxacillin = 1): 1
- MIC relative to reference compound (=1) ([4]; reference oxacillin = 1): 1

SMILES: CC1(C)S[C@@H]2C(N)C(=O)N2[C@H]1C(=O)O (stereo partly drawn) [Penicillanic acid, 6-amino-penicillanic acid, reference compound]
- MIC relative to reference compound (=1) [1, 11]: 1
- MIC relative to reference compound (=1) [2, 11]: 1
- MIC relative to reference compound (=1) [3, 11]: 1
- MIC relative to reference compound (=1) [4, 11]: 1

SMILES: CC1(C)S[C@@H]2[C@H](NC(=O)Cc3ccccc3)C(=O)N2[C@H]1C(=O)O [Penicillin G, penicillin G, reference compound]
- MIC relative to reference compound (=1) ([1]; reference penicillin G = 1): 1
- Rate of hydrolysis: microliters 0.005 N NaOH consumed per minute [5]: 3.83 microliters 0.005 N NaOH per m
- MIC relative to reference compound (=1) ([4]; reference penicillin G = 1): 1
